The values below are quoted from earlier work in EP4374853A1, “SOLID FORMULATION OF ENZALUTAMIDE” (Lotus Pharmaceutical Co., Ltd., priority 2022, dated 2024).

The conditions of series [1]: between pH 1-11.

On to `CNC(=O)c1ccc(N2C(=S)N(c3ccc(C#N)c(C(F)(F)F)c3)C(=O)C2(C)C)cc1F` [Enzalutamide, 4-{3-[4-cyano-3-(trifluoromethyl)phenyl]-5,5-dimethyl-4-oxo-2-sulfanylideneimiidazolidin-1-yl}-2-fluoro-N-methylbenzymide], for which the Permeability entry is recorded as “high permeability”. Besides, the “Solubility in aqueous media” value in series [1] was “practically insoluble”.
